“Also recorded” adds a separate entry of the source. Read-outs that look alike come from different tables or passages of the source.
What was measured:
HCV replicon = HCV replicon antiviral assay in Huh7 cells, HCV RNA by RT-PCR, 72 hours; combinations analysed by Prichard-Shipman / Bliss independence; assay type: cell-based, hepatitis C virus
Protocol: Huh7 cells were maintained at 37° C., in an atmosphere of 5% CO2, in DMEM (Dulbecco's modified Eagle medium) supplemented with 2 mM L-glutamine, non-essential amino acids (NEAA), 10% fetal bovine serum (FBS) and […] geneticin. Cells were sub-divided at a 1:3 or 1:4 ratio every 2-3 days. 24 hours prior to the assay, Huh7 cells were collected, counted, plated in 96-well plates at 7,500 cells/well in […] standard maintenance medium, and incubated in the conditions above. To initiate the assay, culture medium was removed, and cells were washed once with PBS (phosphate buffer saline). For control compounds only, […] assay medium (DMEM with L-glutamine, NEAA, and 10% FBS) was added.
Test compounds were prepared as a 10× stock in assay medium. Serial dilutions of compounds in assay medium were added in a total volume of […] and the plates were then rocked to mix, and incubated as described above for 72 hours.
HCV RNA levels were measured using TaqMan® RT-PCR. Total cellular RNA was isolated and amplified by using a RealTime HCV assay (m1000™ Automated Sample Preparation System and M2000rt™ instrument for reverse transcription, PCR amplification, and detection/quantitation, Abbott Molecular Inc.), which detects and quantitates HCV genotypes 1-6. The molecular genotyping method targets the 5′-untranslated (UTR) region of the virus genome and is based on an amplification of the viral genome. […] A negative control, low positive control and high positive control were also introduced. Results are reported in International Units per ml (IU/ml), and 1 IU/ml=4.3 copies/ml. […]
The effects of drug combinations were evaluated according to the method described by Prichard & Shipman [Antiviral Res 1990, 14:181-205]. The theoretical additive effect was calculated from the dose-response curves of individual compounds by the equation Z=X+Y(1−X) (an equation referred to in the art as a Bliss independence model), where X and Y represent the inhibition produced by the individual compounds and Z represents the theoretical effect produced by the combination of compounds. […]

various proteases = test: Protease inhibition; assay type: biochemical
[1] = cited from earlier work

Question: With C=C[C@@H]1C[C@]1(NC(=O)[C@@H]1C[C@@H](OC(=O)N2Cc3cccc(F)c3C2)CN1C(=O)[C@@H](NC(=O)OC(C)(C)C)C(C)(C)C)C(=O)NS(=O)(=O)C1CC1 [GNS-227] as the compound, how does the “antiviral activity towards HCV” value (HCV replicon) read?
Answer: an antiviral activity towards HCV

Question: What about the “GNS-227 concentration at which synergy was best achieved” value (HCV replicon; in combination with HCQ) of the same compound?
Answer: about 3.7 nM

Question: What about the protease inhibition activity (various proteases) of the same compound?
Answer: exhibit inhibition activity on various proteases; also recorded: exhibit a protease inhibition activity

Question: Which “HCQ concentration at which synergy was best achieved” value (HCV replicon; in combination with GNS-227) does the source give for CCN(CCO)CCCC(C)Nc1ccnc2cc(Cl)ccc12 (centres unmarked) [HCQ, 2-[[4-[(7-chloro-4-quinolinyl)amino]pentyl]ethylamino]ethanol] here?
Answer: about 6 μM

Question: What about the “toxicity relative to chloroquine” value ([1]; in vivo) of the same compound?
Answer: less toxic

Question: What about the “toxicity relative to chloroquine” value ([1]; in vivo, listed as hydroxychloroquine) of the same compound?
Answer: one-half as toxic

Question: What about the “effectiveness relative to chloroquine” value ([1]; treating rheumatologic diseases) of the same compound?
Answer: one-half to two-thirds as effective as chloroquine

Question: Which “retinotoxicity relative to hydroxychloroquine” value ([1]; in vivo) does the source give for CCN(CC)CCCC(C)Nc1ccnc2cc(Cl)ccc12 (centres unmarked) [chloroquine] here?
Answer: much more retinotoxic
